Target: T1, Bcl-2 protein (Recombinant Human Bcl-2 Protein) (Homo sapiens, UniProt P10415)
T1 construct: purchased Novus Biologicals NBP2-34889
Assay: AS-MS evaluation of binding of the Example 4 mixture library (1200 compounds/well) to Bcl-2, ASMS ratio (%)
Conditions: AS-MS, Example 4 mixture library; for ASMS ratio (%) n = 1: Bcl-2, replicate n = 1; for ASMS ratio (%) n = 2: Bcl-2, replicate n = 2
Method in brief: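 Binding is read as an ASMS ratio from reverse-phase LC/MS peak data. Samples: 1200 compounds at 20 nM each with 20 μM Bcl-2, 1 h at 23 °C in the dark, then P-2 SEC and organic-solvent extraction; references lacked protein, with and without SEC.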

T1 sequence (P10415 whole entry): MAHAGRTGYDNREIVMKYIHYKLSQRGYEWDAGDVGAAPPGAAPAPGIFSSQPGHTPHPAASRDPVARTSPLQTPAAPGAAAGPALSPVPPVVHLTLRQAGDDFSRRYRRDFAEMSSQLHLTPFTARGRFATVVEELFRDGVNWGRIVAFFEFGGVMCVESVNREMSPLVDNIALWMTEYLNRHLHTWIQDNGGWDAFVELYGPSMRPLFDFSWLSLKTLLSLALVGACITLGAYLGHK

SMILES: CCOc1cccc(-c2ccc(CN3CCN(c4ccc(C(=O)NS(=O)(=O)c5ccc(NCCSc6ccccc6)c(C(F)(F)F)c5)cc4)CC3)c(CC)c2)c1 [Compound B2R049-01, 4-[4-[[4-(3-Ethoxyphenyl)-2-ethylphenyl]methyl]piperazin-1-yl]-N-[4-(2-phenylsulfanylethylamino)-3-(trifluoromethyl)phenyl]sulfonylbenzamide]
- ASMS ratio (%) n = 1: 7.5%
- ASMS ratio (%) n = 2: −5.5%

SMILES: CCOc1cncc(-c2ccc(CN3CCN(c4ccc(C(=O)NS(=O)(=O)c5ccc(NCCSc6ccccc6)c(C(F)(F)F)c5)cc4)CC3)c(CC)c2)c1 [Compound B2R050-01]
- ASMS ratio (%) n = 1: 0.0%
- ASMS ratio (%) n = 2: 0.0%

SMILES: CCOc1cccc(-c2ccc(CN3CCN(c4ccc(C(=O)NS(=O)(=O)c5ccc(NCCSc6ccccc6)c(C(F)(F)F)c5)cc4)CC3)cc2F)c1 [Compound B2R051-01, 4-[4-[[4-(3-Ethoxyphenyl)-3-fluorophenyl]methyl]piperazin-1-yl]-N-[4-(2-phenylsulfanylethylamino)-3-(trifluoromethyl)phenyl]sulfonylbenzamide]
- ASMS ratio (%) n = 1: 12.7%
- ASMS ratio (%) n = 2: −1.8%

SMILES: CCOc1cncc(-c2ccc(CN3CCN(c4ccc(C(=O)NS(=O)(=O)c5ccc(NCCSc6ccccc6)c(C(F)(F)F)c5)cc4)CC3)cc2F)c1 [Compound B2R052-01, 4-[4-[[4-(5-Ethoxypyridin-3-yl)-3-fluorophenyl]methyl]piperazin-1-yl]-N-[4-(2-phenylsulfanylethylamino)-3-(trifluoromethyl)phenyl]sulfonylbenzamide]
- ASMS ratio (%) n = 1: 0.0%
- ASMS ratio (%) n = 2: −7.4%

SMILES: CCOc1cccc(-c2ccc(CN3CCN(c4ccc(C(=O)NS(=O)(=O)c5ccc(NCCSc6ccccc6)c(C(F)(F)F)c5)cc4)CC3)c(OC)c2)c1 [Compound B2R053-01, 4-[4-[[4-(3-Ethoxyphenyl)-2-methoxyphenyl]methyl]piperazin-1-yl]-N-[4-(2-phenylsulfanylethylamino)-3-(trifluoromethyl)phenyl]sulfonylbenzamide]
- ASMS ratio (%) n = 1: −15.0%
- ASMS ratio (%) n = 2: 0.0%

SMILES: CCOc1cncc(-c2ccc(CN3CCN(c4ccc(C(=O)NS(=O)(=O)c5ccc(NCCSc6ccccc6)c(C(F)(F)F)c5)cc4)CC3)c(OC)c2)c1 [Compound B2R054-01, 4-[4-[[4-(5-Ethoxypyridin-3-yl)-2-methoxyphenyl]methyl]piperazin-1-yl]-N-[4-(2-phenylsulfanylethylamino)-3-(trifluoromethyl)phenyl]sulfonylbenzamide]
- ASMS ratio (%) n = 1: 3.3%
- ASMS ratio (%) n = 2: −0.8%

SMILES: CCOc1cccc(-c2cc(CN3CCN(c4ccc(C(=O)NS(=O)(=O)c5ccc(NCCSc6ccccc6)c(C(F)(F)F)c5)cc4)CC3)cc(OCC)c2)c1 [Compound B2R055-01, 4-[4-[[3-Ethoxy-5-(3-ethoxyphenyl)phenyl]methyl]piperazin-1-yl]-N-[4-(2-phenylsulfanylethylamino)-3-(trifluoromethyl)phenyl]sulfonylbenzamide]
- ASMS ratio (%) n = 1: −3.3%
- ASMS ratio (%) n = 2: 6.3%

SMILES: CCOc1cncc(-c2cc(CN3CCN(c4ccc(C(=O)NS(=O)(=O)c5ccc(NCCSc6ccccc6)c(C(F)(F)F)c5)cc4)CC3)cc(OCC)c2)c1 [Compound B2R056-01, 4-[4-[[3-Ethoxy-5-(5-ethoxypyridin-3-yl)phenyl]methyl]piperazin-1-yl]-N-[4-(2-phenylsulfanylethylamino)-3-(trifluoromethyl)phenyl]sulfonylbenzamide]
- ASMS ratio (%) n = 2: −63.9%

SMILES: CCOc1cccc(-c2cc(CN3CCN(c4ccc(C(=O)NS(=O)(=O)c5ccc(NCCSc6ccccc6)c(C(F)(F)F)c5)cc4)CC3)cc(OC(C)C)c2)c1 [Compound B2R057-01, 4-[4-[[3-(3-Ethoxyphenyl)-5-propan-2-yloxyphenyl]methyl]piperazin-1-yl]-N-[4-(2-phenylsulfanylethylamino)-3-(trifluoromethyl)phenyl]sulfonylbenzamide]
- ASMS ratio (%) n = 1: 5.7%
- ASMS ratio (%) n = 2: −5.1%

SMILES: CCOc1cncc(-c2cc(CN3CCN(c4ccc(C(=O)NS(=O)(=O)c5ccc(NCCSc6ccccc6)c(C(F)(F)F)c5)cc4)CC3)cc(OC(C)C)c2)c1 [Compound B2R058-01, 4-[4-[[3-(5-Ethoxypyridin-3-yl)-5-propan-2-yloxyphenyl]methyl]piperazin-1-yl]-N-[4-(2-phenylsulfanylethylamino)-3-(trifluoromethyl)phenyl]sulfonylbenzamide]
- ASMS ratio (%) n = 1: 13.0%
- ASMS ratio (%) n = 2: 4.8%

SMILES: CCOc1cccc(-c2cc(OC)c(CN3CCN(c4ccc(C(=O)NS(=O)(=O)c5ccc(NCCSc6ccccc6)c(C(F)(F)F)c5)cc4)CC3)c(OC)c2)c1 [Compound B2R059-01, 4-[4-[[4-(3-Ethoxyphenyl)-2,6-dimethoxyphenyl]methyl]piperazin-1-yl]-N-[4-(2-phenylsulfanylethylamino)-3-(trifluoromethyl)phenyl]sulfonylbenzamide]
- ASMS ratio (%) n = 1: 0.0%
- ASMS ratio (%) n = 2: 0.0%

SMILES: CCOc1cncc(-c2cc(OC)c(CN3CCN(c4ccc(C(=O)NS(=O)(=O)c5ccc(NCCSc6ccccc6)c(C(F)(F)F)c5)cc4)CC3)c(OC)c2)c1 [Compound B2R060-01, 4-[4-[[4-(5-Ethoxypyridin-3-yl)-2,6-dimethoxyphenyl]methyl]piperazin-1-yl]-N-[4-(2-phenylsulfanylethylamino)-3-(trifluoromethyl)phenyl]sulfonylbenzamide]
- ASMS ratio (%) n = 1: 3.9%
- ASMS ratio (%) n = 2: 0.0%

SMILES: CCOc1cccc(-c2cc(CN3CCN(c4ccc(C(=O)NS(=O)(=O)c5ccc(NCCSc6ccccc6)c(C(F)(F)F)c5)cc4)CC3)cc(C(F)(F)F)c2)c1 [Compound B2R061-01, 4-[4-[[3-(3-Ethoxyphenyl)-5-(trifluoromethyl)phenyl]methyl]piperazin-1-yl]-N-[4-(2-phenylsulfanylethylamino)-3-(trifluoromethyl)phenyl]sulfonylbenzamide]
- ASMS ratio (%) n = 1: 9.1%
- ASMS ratio (%) n = 2: −6.0%

SMILES: CCOc1cncc(-c2cc(CN3CCN(c4ccc(C(=O)NS(=O)(=O)c5ccc(NCCSc6ccccc6)c(C(F)(F)F)c5)cc4)CC3)cc(C(F)(F)F)c2)c1 [Compound B2R062-01, 4-[4-[[3-(5-Ethoxypyridin-3-yl)-5-(trifluoromethyl)phenyl]methyl]piperazin-1-yl]-N-[4-(2-phenylsulfanylethylamino)-3-(trifluoromethyl)phenyl]sulfonylbenzamide]
- ASMS ratio (%) n = 1: 0.0%
- ASMS ratio (%) n = 2: 0.0%

SMILES: CCOc1cccc(-c2cc(CN3CCN(c4ccc(C(=O)NS(=O)(=O)c5ccc(NCCSc6ccccc6)c(C(F)(F)F)c5)cc4)CC3)cc(OC(F)(F)F)c2)c1 [Compound B2R063-01, 4-[4-[[3-(3-Ethoxyphenyl)-5-(trifluoromethoxy)phenyl]methyl]piperazin-1-yl]-N-[4-(2-phenylsulfanylethylamino)-3-(trifluoromethyl)phenyl]sulfonylbenzamide]
- ASMS ratio (%) n = 1: 8.2%
- ASMS ratio (%) n = 2: 4.6%
